IC50 and viability, T/C data for 4 molecules are collected here from PubChem BioAssay AID1918936 (Molecular Pharmacology Branch, DTP, NCI, 2023).

The IC50 is the midpoint of a concentration-inhibition curve. A word on the viability, T/C: it is the ratio of treated to control.

Values joined by “and” are separate entries in the source; they are usually repeats but may differ in a detail not shown here. Equal values may be shown once. A value given as a limit tells only on which side of the number the result lay.

The assay concerns 349418-098-R-PDC complex spheroid viability. Put plainly: Anticancer human tumor 349418-098-R-PDC patient-derived lung adenocarcinoma cell line growth inhibition. Conditions: for viability, T/C: stronger effect = lower value. The procedure, abridged: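 Complex spheroids of tumor cells with HUVEC and human MSCs, exposed to iadademstat combined with other agents. Each agent tested in half-log steps from near clinical Cmax (else 10 microM top), DMSO ≤0.25%.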

The mark [1] stands for this setting: curve of first compound, second compound 0.1 µM.
[2] abbreviates: curve of first compound, second compound 0.316 µM.
Where [3] appears, read: curve of first compound, second compound 1 µM.
[4] abbreviates: curve of first compound, second compound 3.16 µM.
The mark [5] stands for this setting: curve of first compound, second compound 10 µM.
Setting [6] is: second compound 0.1 µM, first compound 0.0316 µM.
Where [7] appears, read: second compound 0.1 µM, first compound 0.1 µM.
Where [8] appears, read: second compound 0.1 µM, first compound 0.316 µM.
Setting [9] is: second compound 0.1 µM, first compound 1 µM.
Where [10] appears, read: second compound 0.1 µM, first compound 3.16 µM.
Setting [11] is: second compound 0.1 µM, first compound 10 µM.
Where [12] appears, read: second compound 0.316 µM, first compound 0.0316 µM.
[13] abbreviates: second compound 0.316 µM, first compound 0.1 µM.
[14] abbreviates: second compound 0.316 µM, first compound 0.316 µM.
The mark [15] stands for this setting: second compound 0.316 µM, first compound 1 µM.
Where [16] appears, read: second compound 0.316 µM, first compound 3.16 µM.
Setting [17] is: second compound 0.316 µM, first compound 10 µM.
[18] abbreviates: second compound 1 µM, first compound 0.0316 µM.
Setting [19] is: second compound 1 µM, first compound 0.1 µM.
[20] abbreviates: second compound 1 µM, first compound 0.316 µM.
The mark [21] stands for this setting: second compound 1 µM, first compound 1 µM.
Where [22] appears, read: second compound 1 µM, first compound 3.16 µM.
[23] abbreviates: second compound 1 µM, first compound 10 µM.
Where [24] appears, read: second compound 3.16 µM, first compound 0.0316 µM.
[25] abbreviates: second compound 3.16 µM, first compound 0.1 µM.
The mark [26] stands for this setting: second compound 3.16 µM, first compound 0.316 µM.
Where [27] appears, read: second compound 3.16 µM, first compound 1 µM.
Where [28] appears, read: second compound 3.16 µM, first compound 3.16 µM.
Setting [29] is: second compound 3.16 µM, first compound 10 µM.
Setting [30] is: second compound 10 µM, first compound 0.0316 µM.
Where [31] appears, read: second compound 10 µM, first compound 0.1 µM.
The mark [32] stands for this setting: second compound 10 µM, first compound 0.316 µM.
Setting [33] is: second compound 10 µM, first compound 1 µM.
Setting [34] is: second compound 10 µM, first compound 3.16 µM.
The mark [35] stands for this setting: second compound 10 µM, first compound 10 µM.
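Note: spheroids exposed to agents for seven days before readout.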
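Throughout, for viability, T/C: 100% = DMSO vehicle control wells.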

With `CC(C)c1c(-c2ccccc2)nc2c(C#N)c[nH]n2c1=O` + NC1CCC(NC2CC2c2ccccc2)CC1, the IC50 under setting [1] was above 10 µM; the IC50 under setting [2] is above 10 µM; the IC50 under setting [3] was above 10 µM; the 50% inhibitory concentration (IC50) under setting [4] is above 10 µM; the IC50 under setting [5] is above 10 µM. The viability, T/C is, setting by setting: under setting [6], 108%; under setting [7], 112%; under setting [8], 93.7%; under setting [9], 105%; under setting [10], 104%; under setting [11], 88.1%. Further, the viability, T/C is 108% under setting [12]; 110% under setting [13]; 113% under setting [14]; 104% under setting [15]; 101% under setting [16]; 98.8% under setting [17]. Also, the viability, T/C reads like this: under setting [18], 104%; under setting [19], 113%; under setting [20], 108%; under setting [21], 100%; under setting [22], 104%; under setting [23], 93.8%. Also, the viability, T/C was 96.4% under setting [24]; 92.5% under setting [25]; 113% under setting [26]; 108% under setting [27]; 102% under setting [28]; 87.3% under setting [29]. The viability, T/C reads like this: under setting [30], 101%; under setting [31], 84.1%; under setting [32], 108%; under setting [33], 93.6%; under setting [34], 86.4%; under setting [35], 78.7%.
As to `O=C(c1cc(Cc2n[nH]c(=O)c3ccccc23)ccc1F)N1CCN(C(=O)C2CC2)CC1` + NC1CCC(NC2CC2c2ccccc2)CC1, the IC50 runs as follows: under setting [1], 4.25 µM; under setting [2], 5.9 µM; under setting [3], 4.18 µM; under setting [4], 4.91 µM; under setting [5], 2.52 µM. For the same molecule, the viability, T/C is 93.9% under setting [6]; 88.8% under setting [7]; 82.6% under setting [8]; 77.8% under setting [9]; 51.7% under setting [10]; 40.6% under setting [11]. Further, the viability, T/C was 93.8% under setting [12]; 87.3% under setting [13]; 82.4% under setting [14]; 77.2% under setting [15]; 59.5% under setting [16]; 41.1% under setting [17]. In addition, the viability, T/C by setting is: under setting [18], 106%; under setting [19], 98.1%; under setting [20], 79.4%; under setting [21], 75.4%; under setting [22], 62.2%; under setting [23], 28.9%. Further, the viability, T/C is 92.4% under setting [24]; 89% under setting [25]; 87% under setting [26]; 69.6% under setting [27]; 64.6% under setting [28]; 32.4% under setting [29]. Besides, the viability, T/C runs as follows: under setting [30], 89.5%; under setting [31], 68.7%; under setting [32], 64.8%; under setting [33], 62.4%; under setting [34], 48.7%; under setting [35], 38.2%.
`CC1COCCN1c1cc(-c2ccnn2C)c2ccnc(-c3ccn[nH]3)c2n1` (centres undefined): the viability, T/C was 104% and 25.4% (compound 0.00316 µM); 61.4% and 14.9% (compound 0.01 µM); 14.5% and 8.01% (compound 0.0316 µM); 8.8% and 6.27% (compound 0.1 µM); 7.72% and 5.55% (compound 0.316 µM); 5.78% and 4.24% (compound 1 µM). Besides, where the note is “curve of compound”, the IC50 was 0.0132 µM and < 0.00316 µM.
Regarding `COc1ccc([C@@H](O)c2cc(-c3ncnc4cc(N5CCOCC5)ccc34)c(F)cc2Cl)nn1`, the viability, T/C by setting is: (compound 0.0316 µM) 91.6% and 95.8%; (compound 0.1 µM) 79.4% and 83.2%; (compound 0.316 µM) 53.7% and 74.8%; (compound 1 µM) 29.1% and 41.5%; (compound 3.16 µM) 9.45% and 15%; (compound 10 µM) 6.34% and 4.43%. For the same molecule, the IC50 (curve of compound) was 0.384 µM and 0.74 µM.
